Measured values from patent US9770430B2, “Desferrioxamine-metal complexes for the treatment of immune-related disorders” (priority 2009, dated 2017).
“And” between values parts separate entries of the source, which are not always exact repeats. Identical values can stand only once.

How the values were obtained:
[1] = tested on: high energy diet-induced Type II diabetes; assay: Sand rat high energy diet Type II diabetes model, glucose tolerance test and cataract formation (Example 6); format: in vivo, sand rat (Psammomis obesus); settings: for three hours response to an orally-administered glucose dose, value above the zero (standard diet Group I): 200 mg glucose per 100 g body weight, end of 53 day experiment, high energy diet; for Cataract formation: high energy diet (HE) sand rats, 53 days
Text: (§1) Sand rats (Psammomis Obesus) were used as a model for Type 2 diabetes. The sand rats transferred onto high energy diet develop a severe form of Type 2 diabetes, including high blood glucose level, increase in body weight, and cataract development (eye lens opacification).
(§2) The sand rats were divided into groups. The animals from the Group I received the standard diet, serving as a control, whereas animals from the other indicated groups received high energy diet, leading to diabetes development. The high-energy diet ed mice were either untreated, or treated with intra-peritoneal injections of 2.5 mg/kg body weight Ga-DFO, Zn-DFO, DFO alone, Zn, Ga or lipoic acid (LA), either twice or three times per week, as indicated, for the duration of the experiment. The blood glucose and body weight of the animals were monitored throughout the experiment.
Forty two sand rats were divided into seven groups, six animals in each. The animals from Group I received the standard diet and used as a control. The animals from the Groups II, III, IV, V, VI and VII received high energy diet, leading to diabetes development, while Groups III, IV and VII were treated with Zn-DFO, Ga-DFO and DFO alone, respectively. The Groups V and VI received Zn and Ga, in their chloride salt form, alone respectively. Administration of the different treatments was as described, and the experiment lasted for 53 days. Glucose tolerance test was performed at the end of experiment. The cataract formation was tested as well.

[2] = complex of desferrioxamine with the named metal ion; cited from earlier work
[3] = pH limit of the complex solution during preparation (loss of biological activities); format: physicochemical; settings: pH above 5.6; solution reacts with air-containing CO2
ovalbumin-induced asthma [4] = assay: Ovalbumin-induced asthma, treatment of chronic asthma model (BAL cells, lung histology); format: in vivo, BALB/c mice; settings: Mean ± SE
Procedure: • Twelve-week-old Balb/c mice were administered 10 μg (100 μl) ovalbumin (OVA) dissolved with 3 mg Al(OH)3 in 0.9% saline intraperitoneally (i.p.) on days 0, 7 and 14, and 10 μg (50 μl) OVA intranasally (i.n.) on days 20, 23, 25, 27, 29, 31, 34, 36, 37, 41, 43 and 45. For intranasal administration, mice were anesthetized with inhaled N-flurane and instilled with OVA i.n. with a micropipette. • Three-week-old BALB/c mice were sensitized (×3) with intra-peritoneal (i/p) injection (100 μl OVA solution, containing 0.3 mg OVA and 6.7 mg Al(OH)3, in 1 ml PBS) on days 0, 7 and 14. On days 14, 15, 17, 21 and 23 the mice were further sensitized with intranasal sprinklings (50 μl, each) of OVA in PBS solution containing 2 mg/ml OVA, as following: mice were anesthetized with inhaled N-flurane and instilled with OVA intra-nasally using a micropipette. Twenty-four hours after the last administration of OVA, the mice were sacrificed. Methacholine Challenge and Collection of Histologic Sections and Biochemical Samples
Either Zn-DFO, Ga-DFO, Zn-DFO and Ga-DFO 1:1 combination (herein metal complexes) or saline were administered as follows: on days −5, −1, 7 and 14, 1 mg/kg body weight metal complexes or saline were administered intraperitoneally (i.p.). On days 0, 6, 8, 13 and 15, 0.3 mg/kg body weight metal complexes or saline were administered i.p. On days 20, 23, 25, 27, 29, 31, 34, 36, 37, 41, 43 and 45, 0.3 mg/kg body weight metal complexes or saline were administered intranasally (i.n.). Twenty-four hours after the last sensitization, mice were anesthetized with urethane and the lungs were lavaged 4 times with 0.5 ml sterile PBS. Animals in the “control” group (non-asthmatic—saline treated, but not sensitized) (n=6) received saline injections and instillations, using the same regime as the asthmatic and treated animals. Animals of the “asthmatic” group (sensitized and saline-treated, rather than complex-treated) (n=6) received saline instead of the respective complex, under the same regime.
For the treatment of chronic asthma model, a similar experimental protocol was followed, with the following modifications: 1 mg/kg body weight metal complexes or saline were administered i.p. on day 0 (instead of days −5 and −1) and a further 0.3 mg/kg complexes or saline were administered on day 1. In this model, the effects of the complexes were investigated further by histological examination of lung sections stained with either haematoxylin-eosine or PAS/AB (periodic acid-Schiff/alcan blue).
(§3) To estimate the anti-asthmatic effect of the complexes the following parameters were measured: the concentration of ferritin in the lungs, the presence of inflammatory cells infiltration into the lungs, and the amounts of macrophages, eosinophils, lymphocytes and neutrophils in bronchoalveolar lavages (BALs).

ovalbumin-induced asthma [5] = assay: Ovalbumin-induced asthma, prophylactic treatment model (lung ferritin); format: in vivo, BALB/c mice; settings: asthmatic mice, 1 and 0.3 mg/kg i.p., then 0.3 mg/kg i.n.
Procedure: Ferritin concentration was quantified using an indirect ‘sandwich’ ELISA assay in accordance with a procedure developed previously in our laboratory. Briefly, ELISA 96-well micro plates were pre-coated with goat anti-human L-ferritin antibody. Rabbit anti-human H-ferritin was used as the secondary antibody. Plates were treated with goat anti-rabbit IgG conjugated with β-galactosidase. Chlorophenol Red-β-D-Galactopyranoside was then added and the plates analyzed using a microplate reader with a test (570 nm) and reference (630 nm) filters.
• Twelve-week-old Balb/c mice were administered 10 μg (100 μl) ovalbumin (OVA) dissolved with 3 mg Al(OH)3 in 0.9% saline intraperitoneally (i.p.) on days 0, 7 and 14, and 10 μg (50 μl) OVA intranasally (i.n.) on days 20, 23, 25, 27, 29, 31, 34, 36, 37, 41, 43 and 45. […]
as §3

[6] = tested on: high energy diet-induced Type II diabetes; assay: Sand rat high energy diet Type II diabetes model, blood glucose and body weight (Example 5); format: in vivo, sand rat (Psammomis obesus)
Text: as §1, §2
The sand rats were divided into four groups (6 animals in each). Animals from Group I received the standard diet, serving as a control. The animals from the Groups II, III and W received high energy diet, leading to diabetes development, while Groups III and IV were treated with Ga-DFO and lipoic acid (LA), respectively. The intra-peritoneal injections of 2.5 mg Ga-DFO or LA per kg body weight were performed twice a week, for 61 days. The blood glucose and body weight of the animals were monitored during all the experiment.

[7] = Day 0, 2.5 mg/kg i.p. twice a week, mean, SD in the line below
[8] = Day 7, 2.5 mg/kg i.p. twice a week
[9] = Day 21, 2.5 mg/kg i.p. twice a week
[10] = Day 21, 2.5 mg/kg i.p. twice a week, 2.5 mg/kg
[11] = Day 32, 2.5 mg/kg i.p. twice a week
[12] = Day 42, 2.5 mg/kg i.p. twice a week
[13] = Day 49, 2.5 mg/kg i.p. twice a week
[14] = Day 56, 2.5 mg/kg i.p. twice a week
[15] = Day 61, 2.5 mg/kg i.p. twice a week
[16] = Day 61, 2.5 mg/kg i.p. twice a week, 2.5 mg/kg

With `CC(=O)N(O)CCCCCNC(=O)CCC(=O)N(O)CCCCCNC(=O)CCC(=O)N(O)CCCCCN` [DFO, N′-{5-[acetyl(hydroxy)amino]pentyl}-N-[5-({4-[(5-aminopentyl)(hydroxy)amino]-4-oxobutanoyl}amino)pentyl]-N-hydroxy-succinamide] the “three hours response to an orally-administered glucose dose, value above the zero (standard diet Group I)” value (“three hours response” for short) [1] was 150 mg/dL and the Cataract formation [1] was 25%.

For `CC(=O)N([O-])CCCCCNC(=O)CCC(=O)N([O-])CCCCCNC(=O)CCC(=O)N([O-])CCCCCN.[Fe+3]` [Fe(III), reference compound], the “relative stability constants for the complexes of desferrioxamine” value [2] is given as 10^31.

In the case of `[Cl-].[Cl-].[Cl-].[Ga+3]` [Ga, Gallium (III) chloride], the “three hours response” value [1] is reported as 25 mg/dL and the Cataract formation [1] is reported as 36%.

For `CC(=O)N([O-])CCCCCNC(=O)CCC(=O)N([O-])CCCCCNC(=O)CCC(=O)N([O-])CCCCCN.[Ga+3]` [Ga-DFO, gallium-desferrioxamine], the “effect of higher pH on the Ga-DFO solution” value [3] was “marked loss of the biological activities”, the “Eosinophils in BAL fluid” value (ovalbumin-induced asthma [4]) was 0.2 ± 0.02^# 10^4 cells/ml and the “Lymphocytes in BAL fluid” value (ovalbumin-induced asthma [4]) was 0.3 ± 0.06^# 10^4 cells/ml. For the same compound, the “Macrophages in BAL fluid” value (ovalbumin-induced asthma [4]) was 3.3 ± 0.2^# 10^4 cells/ml, the “Neutrophils in BAL fluid” value (ovalbumin-induced asthma [4]) was 0.3 ± 0.07^# 10^4 cells/ml and the “Total WBC in BAL fluid” value (ovalbumin-induced asthma [4]) was 4.5 ± 0.6^# 10^4 cells/ml. For the same compound, the “three hours response” value [1] was 5 mg/dL, the Cataract formation [1] was 11% and the lung ferritin level (ovalbumin-induced asthma [5]) was 0.5 ± 0.3 µg/mg. For the same compound, the “relative stability constants for the complexes of desferrioxamine” value [2] was 10^28, the Blood glucose level [6, 7] was 91.8 mg/dL and the Body weight [6, 7] was 131.6 g. For the same compound, the Blood glucose level [6, 8] was 94.6 mg/dL, the Body weight [6, 8] was 154.0 g and the Body weight [6, 9] was 173.2 g. For the same compound, the Blood glucose level [6, 10] was 176 ± 46 mg/dL and 176.4 mg/dL, the Blood glucose level [6, 11] was 81.2 mg/dL and the Body weight [6, 11] was 180.4 g. The Blood glucose level [6, 12] was 89.0 mg/dL, the Body weight [6, 12] was 192.4 g and the Blood glucose level [6, 13] was 122.0 mg/dL. The Body weight [6, 13] was 204.0 g, the Blood glucose level [6, 14] was 129.2 mg/dL and the Body weight [6, 14] was 212.4 g. For the same compound, the Body weight [6, 15] was 214.4 g and the Blood glucose level [6, 16] was 98 ± 29 mg/dL and 97.8 mg/dL.

`O=C(O)CCCCC1CCSS1` (stereo not shown) [LA, Lipoic acid, reference compound] showed a Blood glucose level [6, 7] of 92.8 mg/dL, a Body weight [6, 7] of 113.4 g and a Blood glucose level [6, 8] of 97.4 mg/dL. For the same compound, the Body weight [6, 8] was 137.0 g, the Body weight [6, 9] was 160.4 g and the Blood glucose level [6, 10] was 259 ± 49 mg/dL and 259.4 mg/dL. The Blood glucose level [6, 11] was 176.4 mg/dL, the Body weight [6, 11] was 170.2 g and the Blood glucose level [6, 12] was 196.4 mg/dL. It also gave a Body weight [6, 12] of 189.2 g, a Blood glucose level [6, 13] of 185.2 mg/dL and a Body weight [6, 13] of 201.4 g. It also gave a Blood glucose level [6, 14] of 220.6 mg/dL, a Body weight [6, 14] of 211.8 g and a Body weight [6, 15] of 218.0 g. For the same compound, the Blood glucose level [6, 16] was 168 ± 33 mg/dL and 167.8 mg/dL.

In the case of `[Cl-].[Cl-].[Zn+2]` [Zn, Zinc chloride], the “three hours response” value [1] is reported as 38 mg/dL and the Cataract formation [1] is reported as 22%.
